Results reported in PubChem BioAssay (NCI).
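Assay format: 96-well plates, 48-hour exposure. TGI is the concentration that stops growth completely.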 Where a SMILES comes first, the peptide text is derived from it. [ ]: non-standard residue; d: D form. The star is where a group is joined. NMeF = CN[CH](Cc1ccccc1)C(=O)O; NMeV = CN[CH](C(=O)O)C(C)C; Boc = CC(C)(C)OC(=O)*

Columns and labels:
Assay in all cases: NCI tumour cell line growth inhibition, 48 h
[1] = system: 786-0 renal
[2] = system: A549 NSCLC
[3] = system: ACHN renal
[4] = system: CCRF-CEM leukemia
[5] = system: COLO 205 colon
[6] = system: DMS 114 small cell lung
[7] = system: DMS 273 small cell lung
[8] = system: EKVX NSCLC
[9] = system: HCC-2998 colon
[10] = system: HCT-116 colon
[11] = system: HCT-15 colon
[12] = system: HL-60(TB) leukemia
[13] = system: HOP-62 NSCLC
[14] = system: HT29 colon
[15] = system: IGROV1 ovarian
[16] = system: K-562 leukemia
[17] = system: KM12 colon
[18] = system: KM20L2 colon
[19] = system: LOX IMVI melanoma
[20] = system: LXFL 529 NSCLC
[21] = system: M14 melanoma
[22] = system: M19-MEL melanoma
[23] = system: MALME-3M melanoma
[24] = system: MOLT-4 leukemia
[25] = system: NCI-H226 lung
[26] = system: NCI-H23 lung
[27] = system: NCI-H460 lung
[28] = system: NCI-H522 lung
[29] = system: OVCAR-3 ovarian
[30] = system: OVCAR-8 ovarian
[31] = system: RPMI-8226 leukemia
[32] = system: RXF 393 renal
[33] = system: SF-268 CNS
[34] = system: SF-295 CNS
[35] = system: SF-539 CNS
[36] = system: SK-MEL-28 melanoma
[37] = system: SK-MEL-5 melanoma
[38] = system: SN12C renal
[39] = system: SNB-19 CNS
[40] = system: SR leukemia
[41] = system: SW-620 colon
[42] = system: TK-10 renal
[43] = system: U251 CNS
[44] = system: UACC-257 melanoma
[45] = system: UACC-62 melanoma
[46] = system: UO-31 renal
[47] = system: XF 498 CNS

Measured: TGI

CC(C)C(NC(=O)OC(C)(C)C)C(=O)N(C)C(Cc1ccccc1)C(=O)N(C)C(C(=O)N(C)C(C(=O)O)C(C)C)C(C)C (configuration not stated) (Boc-V[NMeF][NMeV][NMeV]-OH; configuration not given here)
> 100 µM: all assays above
